Values joined by “and” are separate entries in the source; they are usually repeats but may differ in a detail not shown here. Equal values may be shown once.
Assays:
Assay in all cases: I-Ag7 SABR-II library screen, enrichment score
Type in all cases: cell-based, mouse
TCR17D = conditions: TCR_Mean minus PREDICTED_TCR (from LIB_Mean, SLOPE 0.965121, INTERCEPT 8.55929e-6), PZ52
How it was run: (§1)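 Each TCR was screened in triplicate alongside a positive-control TCR against an I-Ag7 SABR-II library of 4,075 pancreatic-islet epitopes in NFAT–GFP Jurkat cells. Reads from sorted GFP⁺CD69⁺ cells (top 1–2%) were compared with the regression-expected abundance from the unsorted library. Confidence zones were set from the control TCR's cognate epitopes.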

TCR23 = test system: TCR23
How it was run: as §1

TCR5 = test system: TCR5
How it was run: as §1

TCR6B = conditions: sheet TCR6B-PZ37; ES = TCRObserved - TCRPredicted; TCRPredicted = LIBObserved x SLOPE + INTERCEPT; SLOPE 0.908569, INTERCEPT 2.24372e-5
How it was run: as §1

TCR36 = conditions: TCR_Mean minus PREDICTED_TCR (slope 0.914754, intercept 2.09193e-5 on LIB_Mean), TCR 36, run PZ57
How it was run: as §1

TCR7 = test system: TCR7
How it was run: as §1

TCR38 = conditions: I-Ag7 SABR-II library PZ101, CD4 TCR 38; TCR_Mean of 3 replicates minus PREDICTED_TCR (slope 0.968274, intercept 7.78554e-6)
How it was run: as §1

TCR13 = test system: TCR13
How it was run: as §1

TCR2 = conditions: sheet TCR2-PZ44; ES = TCRObserved - TCRPredicted; TCRPredicted = LIBObserved x SLOPE + INTERCEPT; SLOPE 0.908797, INTERCEPT 2.23811e-5
How it was run: as §1

TCR17C = conditions: TCR_Mean minus PREDICTED_TCR (from LIB_Mean, SLOPE 0.897918, INTERCEPT 2.50509e-5), PZ52
How it was run: as §1

TCR1 = conditions: sheet TCR1-PZ44; ES = TCRObserved - TCRPredicted; TCRPredicted = LIBObserved x SLOPE + INTERCEPT; SLOPE 0.917532, INTERCEPT 2.02377e-5
How it was run: as §1

TCR40 = conditions: I-Ag7 SABR-II library PZ101, CD4 TCR 40; TCR_Mean of 3 replicates minus PREDICTED_TCR (slope 0.959981, intercept 9.82052e-6)
How it was run: as §1

TCR12 = conditions: TCR_Mean minus PREDICTED_TCR (from LIB_Mean, SLOPE 0.937219, INTERCEPT 1.54064e-5), PZ51
How it was run: as §1

[1] = I-Ag7 library, one biological experiment
[2] = TCR_Mean minus PREDICTED_TCR (slope 0.987149, intercept 3.15366e-6 on LIB_Mean), TCR 23, run PZ56
[3] = sheet TCR5-PZ44, ES = TCRObserved - TCRPredicted, TCRPredicted = LIBObserved x SLOPE + INTERCEPT, SLOPE 0.90726, INTERCEPT 2.27584e-5
[4] = sheet TCR7-PZ47, ES = TCRObserved - TCRPredicted, TCRPredicted = LIBObserved x SLOPE + INTERCEPT, SLOPE 0.961246, INTERCEPT 9.5102e-6
[5] = TCR13, TCR_Mean minus PREDICTED_TCR (from LIB_Mean, SLOPE 0.90397, INTERCEPT 2.35655e-5), PZ51

Sequence | Enrichment score (TCR17D) | Enrichment score (TCR23; [1]) | Enrichment score (TCR23; [2]) | Enrichment score (TCR5; [1]) | Enrichment score (TCR5; [3]) | Enrichment score (TCR6B) | Enrichment score (TCR36) | Enrichment score (TCR7; [1]) | Enrichment score (TCR7; [4]) | Enrichment score (TCR38) | Enrichment score (TCR13; [1]) | Enrichment score (TCR13; [5]) | Enrichment score (TCR2) | Enrichment score (TCR17C) | Enrichment score (TCR1) | Enrichment score (TCR40) | Enrichment score (TCR12)
AAVEEGIVAGGGVTLL | 9.065e-5 | -9.242e-5 | 8.213e-5 | 2.521e-5 and 3.881e-5 | 2.521e-5 | 4.397e-5 | -0.0001187 | 1.142e-5 | 1.142e-5 | 0.0001517 | 0.0001546 | 0.0001546 | 9.944e-5 | -3.436e-5 | 0.0002622 | 6.713e-5 | -3.643e-5
AEKVRNLPAGHGLNAQ | -0.00018 | 8.732e-6 | 0.0001238 |  | 1.968e-5 | -0.0001883 | -6.905e-5 | 5.397e-5 | 5.397e-5 | -3.923e-5 | 0.000137 | 0.000137 | 0.0001311 | 2.049e-5 | 9.239e-5 | -9.416e-5 | -0.0001285
AGGVAVIKAGAATEV | -6.024e-5 | -9.6548e-5 | -7.52e-5 |  | -1.203e-5 | 0.0001547 | -1.016e-5 | -2.964e-5 | -2.964e-5 | 4.352e-5 | 0.0001675 | 0.0001675 | -1.7e-5 | -0.0001062 | 3.28e-9 | 8.867e-6 | -1.359e-5
AKAAVEEGIVAGGGV | -0.0001083 | -2.11e-5 | -9.2e-5 |  | 4.678e-5 | 0.0001193 | -3.854e-5 | 0.0001251 | 0.0001251 | -6.1876e-5 | 0.0001008 | 0.0001008 | -6.466e-5 | -5.707e-5 | -8.988e-5 | -1.429e-5 | -1.697e-5
ALVREGLRNVAAGANP | -8.6588e-6 | -1.174e-5 | -3.805e-6 |  | -2.1402e-5 | -2.303e-5 | -2.092e-5 | -9.699e-6 | -9.699e-6 | -7.786e-6 | -2.357e-5 | -2.357e-5 | -2.238e-5 | -2.514e-5 | -2.024e-5 | -9.821e-6 | -1.438e-5
